Laboratory results: patent US20230071765A1, “COMPOSITIONS HAVING THIOREDOXIN ACTIVITY AND RELATED METHODS” (ORPRO THERAPEUTICS, INC., priority 2020, published 2023)
Where “and” joins values, the source holds several entries; their conditions need not be identical. Equal entries are not always repeated.

Columns and labels:
[1] = thiol pKa; thioredoxin: active site Cys32; cited from earlier work
human insulin = target: T1, human insulin (Homo sapiens, UniProt P01308); experiment: RP-HPLC insulin reduction assay (conversion of insulin heterodimer); assay type: biochemical
T1 construct: The two chains of human insulin have a total of six Cys residues which form three disulfide bonds in its mature structure
Method: Functional assays 1. Reduction state of ORP100S was quantified using DTNB which reacts with free SH groups resulting in a yellow color change at 412 nm. Fifty microliters of 2.5 mM rhTrx was added to a 96-well plate, followed by 175 microliters of sample buffer and 25 microliters of 6 mM DTNB. After reactions were initiated by the addition of DTNB, change in kinetic absorbance at 412 nm due to DTNB reduction was monitored spectrophotometrically at 30° C. ORP100S concentration was determined by A280 (Nanodrop) using the extinction coefficient of human Trx-1 (7,000). The actual concentrations of free sulfhydryl groups were calculated based on the absorbance at 412 nm and the extinction coefficient of DTNB (14,150) in order to determine the reduction state as percentage of free sulfhydryl. […] 2. Percent of free monomer ORP100S in solution was determined using SEC. Samples were analyzed on a BioBasic S-300 250×4.6 column (Thermo Scientific) run on an Agilent 1100 HPLC system. […] The flow rate was 0.35 mL/min and absorbance was monitored at 280 nm. […] The ORP100S monomer percentage was determined by integration of the area under the peak of the monomeric fraction divided by the total area under the curve of the chromatogram. […] Disulfide bond reduction activity of ORP100S was quantified by assaying the reduction state of a small protein (human insulin) which in its heterodimeric form contains two intermolecular and one intramolecular disulfide, all three of which are known to be suitable thioredoxin substrates. Insulin reduction has classically been used to quantify thioredoxin activity by absorbance change following addition of NADPH and TrxR (Holmgren A., 1979, Thioredoxin catalyzes the reduction of insulin disulfides by dithiothreitol and dihydrolipoamide, J Biol Chem 254:9627-32). […] Relative activity at each time point was determined from changes in the area under the insulin heterodimer peak following separation over RP-HPLC (Agilent 1100) using an Intrada WP-RP 50×3 (Imtakt) column. […] The flow rate was 0.2 mL/min and absorbance was measured at 280 nm. […]

mucins of 4% HBE mucus = experiment: mucin molecular weight by GPC-MALLS; assay type: biochemical, human; details: 1 mM, 1 hr at 37° C.; from 180 MDa
Text: Mucus Preparation: Aseptic mucus was harvested from over 100 individual HBE cultures from 20 different CF donors and prepared to four weight-percent (4%) solids, a concentration that typifies chronic obstructive pulmonary disease (COPD) and mild CF (Hill, D. B. et al., 2014, A biophysical basis for mucus solids concentration as a candidate biomarker for airways disease, PloS one 9, e87681; Anderson, W. H. et al., 2015, The relationship of mucus concentration (hydration) to mucus osmotic pressure and transport in chronic bronchitis., Am J Resp Crit Care Med 192: 182-90). […] Creep recovery experiments were performed in which a known stress (between 0.05 and ˜100 Pa) was applied to treated or control mucus for 10 seconds, and the rheological recovery of the fluid was recorded for an additional 50 seconds. […] From the measured parameters the viscosity and elasticity of the fluid were determined as a function of applied stress. […] Mucin molecular weight determination: Molecular weight reduction following test article treatment was determined using a combination of gel-permeation chromatography with multi-angle laser light scattering on a Wyatt Heleos MALLS system. […] Mucin MW was determined by fitting a Berry model to light scattering from 11 different angles using Wyatt Astra software. […]

[2] = tested on: primary HBE cells from healthy non-CF donors; experiment: μOCT of MCT rate and CBF in non-CF primary HBE cells; assay type: cell-based, human; details: 3 hrs post-treatment; ORP100S 1-3 mM, DTT 1.6 mM; PBS 0.05±0.007; mean±SE
Text: (§1) Primary human bronchial epithelial (HBE) cells were derived from lung explants from healthy failed donors and CF patients homozygous for F508del CFTR. […]
(§2) One-micron resolution spectral domain μOCT was used to obtain measurements of mucociliary transport (MCT) rate and ciliary beat frequency (CBF) in HBE monolayers and of MCT rate of sputum ex vivo. This first-in-kind, high-speed (40 frames per second, 512 lines per frame) microscopic reflectance imaging modality enables simultaneous anatomic imaging in cell cultures and intact tissues that readily distinguishes the properties of CF compared to normal epithelia (Liu L, Chu K K, Houser G H, Diephuis B J, Li Y, Wilsterman E J, Shastry S, Dierksen G, Birket S E, Mazur M, et al., 2013, Method for quantitative study of airway functional microanatomy using micro-optical coherence tomography, PLoS One 8(1):e54473; Tuggle K L, Birket S E, Cui X, Hong J, Warren J, Reid L, Chambers A, Ji D, Gamber K, Chu K K, et al., 2014, Characterization of defects in ion transport and tissue development in Cystic Fibrosis Transmembrane Conductance Regulator (CFTR)-knockout rats. […] Images were captured, and MCT rate and CBF calculated, as described in the preceding references.

[3] = tested on: CF patient sputum on wild type rat trachea; experiment: CF sputum transport ex vivo on excised rat trachea (μOCT); design: species or system human sputum; details: sputum treated 2 hrs; ORP100S 3 mM, DTT 1.6 mM, DNase 10 or 25 μg/ml; PBS 0.97±0.17
Method: To determine the effect of ORP100S on CF sputum transportability, sputum specimens spontaneously expectorated from 4 CF patients hospitalized for pulmonary exacerbation were collected and stored at 4° C. before being divided into 200 μL aliquots and treated with ORP100S (3 mM), PBS, DTT (1.6 mM), or DNase (10 or 25 μg/ml) on the day of or day following collection. Upon treatment, sputum aliquots were placed in a 37° C. water bath for 2 hrs and then applied (3 μl per sample) for μOCT imaging to the distal end of trachea excised from adult non-CF rats. Trachea were washed 2× with 500 μl of PBS before sputum addition. […]
One-micron resolution spectral domain μOCT was used to obtain measurements of mucociliary transport (MCT) rate and ciliary beat frequency (CBF) in HBE monolayers and of MCT rate of sputum ex vivo. […] Images were captured, and MCT rate and CBF calculated, as described in the preceding references.
The effect of ORP100S on mucus clearance using intact rat trachea, which include the complexities of the airway surface such as gland expression of a fully differentiated mucosal surface, was further evaluated. […] MCT was measured by projecting a cross-sectional line through the mucus through time, with the slope of the particle trajectories indicating velocity. […]

[4] = tested on: primary HBE cells from CF donors homozygous for F508del; experiment: μOCT of MCT rate and CBF in CF primary HBE cells; assay type: cell-based, human; details: 3 hrs post-treatment; ORP100S 1-3 mM, DTT 1.6 mM; PBS 7.30±2.9; mean±SE
Text: as §1, §2

T1 sequence (P01308 25-54 limits assumed): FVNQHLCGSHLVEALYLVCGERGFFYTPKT
T1 sequence (P01308 90-110 limits assumed): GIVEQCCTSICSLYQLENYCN

N[C@@H](CCC(=O)N[C@@H](CS)C(=O)NCC(=O)O)C(=O)O [GSH, glutathione]
pKa [1]: 9.1

NCCS [cysteamine]
pKa [1]: 8.3 and 8.5

O=S(=O)(O)CCS [Mesna, 2-mercaptoethane sulfonate Na]
pKa [1]: 9.2

CC(=O)N[C@@H](CS)C(=O)O [NAC, N-acetyl cysteine, reference compound]
insulin reduction (human insulin; 1.25 mM, pH 6 or 8, 60 min): inactive
insulin reduction (human insulin; 12.5 mM, pH 6, 60 min): not at pH 6
insulin reduction (human insulin; 12.5 mM, pH 8, 60 min): able to reduce insulin

O[C@H](CS)[C@H](O)CS (racemic) [DTT, dithiothreitol, reference compound]
molecular weight of mucins (mucins of 4% HBE mucus): 210 MDa
MCT rate [2]: 1.41±0.1 mm/min
MCT rate of treated sputum [3]: 2.31±0.34 mm/min
MCT rate [4]: 33.33±12.9 mm/min
